Experimental data taken from ChEMBL document CHEMBL6083244, “Identification of 3-methyl-1-(3-methylpyridin-2-yl)-1H-pyrazol-5-ol as promising neuroprotective agent” (Bioorg Med Chem Lett, 2024).
Values after ≈ are worked out from the molar mass of the structure shown. Active and inactive are the calls of the source. The calls are words filed in the database; no cut-off is given here.

Legend:
[1] = Antioxidant activity assessed as ABTS radical scavenging activity; assay type: functional
[2] = Antioxidant activity assessed as ABTS radical scavenging activity at 8 uM relative to control; assay type: functional
[3] = system: SH-SY5Y; assay: Neuroprotective activity against OGD/R induced cell injury in human SH-SY5Y cells assessed as increase in cell survival rate at 1 uM (reference value: 63.22 +/- 2.12%); assay type: functional; settings: read-out: Survival
[4] = Antioxidant activity assessed as DPPH radical scavenging activity; assay type: functional
[5] = Antioxidant activity assessed as DPPH radical scavenging activity at 8 uM relative to control; assay type: functional
[6] = Antioxidant activity assessed as oxygen radical scavenging by measuring trolox equivalents; assay type: functional
[7] = system: Mus musculus; assay: Neuroprotective activity against tMCAO- induced brain injury in ICR mouse model assessed as reduction in infarct volume at 10 mg/kg, ip (reference value: 43.1%); assay type: functional
[8] = Antioxidant activity assessed as DPPH radical scavenging activity measured after 30 mins; assay type: functional
[9] = Antioxidant activity assessed as DPPH radical scavenging activity measured after 30 mins by spectrophotometry assay; assay type: functional
[10] = system: SH-SY5Y; assay: Neuroprotective activity against OGD/R induced cell injury in human SH-SY5Y cells assessed as reduction in cell shrinkage at 1 uM pretreated with OGD/R for 4 hrs followed by compound addition and measured after 24 hrs by light microscopic analysis; assay type: functional, cell-based
[11] = system: SH-SY5Y; assay: Neuroprotective activity against OGD/R induced cell injury in human SH-SY5Y cells assessed as reduction in cell crumpling at 1 uM pretreated with OGD/R for 4 hrs followed by compound addition and measured after 24 hrs by light microscopic analysis; assay type: functional, cell-based
[12] = system: Mus musculus; assay: Neuroprotective activity against tMCAO- induced brain injury in ICR mouse model assessed as restoration of pyramidal cells morphology at 10 mg/kg, ip by H and E staining based assay; assay type: functional, organism-based
[13] = system: Mus musculus; assay: Neuroprotective activity against tMCAO- induced brain injury in ICR mouse model assessed as appearance of regularly arranged neuronal nissl bodies at 10 mg/kg, ip by nissl staining based assay; assay type: functional, organism-based
[14] = system: Mus musculus; assay: Neuroprotective activity against tMCAO- induced brain injury in ICR mouse model assessed as restoration of pyramidal cells size at 10 mg/kg, ip by H and E staining based assay; assay type: functional, organism-based
[15] = Metal chelating activity assessed as Cu2+ chelation by UV-Vis spectroscopy
[16] = species on record: Mus musculus; assay: Neuroprotective activity against tMCAO- induced brain injury in ICR mouse model assessed as appearance of tightly arranged neuronal cells in CA1 region by H and E staining based assay; assay type: functional, organism-based
[17] = system: Mus musculus; assay: Neuroprotective activity against tMCAO- induced brain injury in ICR mouse model assessed as appearance of abundant nissl granules at 10 mg/kg, ip by nissl staining based assay; assay type: functional, organism-based

SMILES: Oc1cc(C(F)(F)F)nn1-c1ncccc1C(F)(F)F
- IC50 [1]: 35.5 µM
- Activity [2]: 36.1%
- viability at 1 µM [3]: 70.8%
- IC50 ([4]; read-out: IC50): > 120 µM
- Activity [5]: 34.7%
- Activity [6]: 1.22

SMILES: Cc1c(C)c2c(c(C)c1O)CCC(C)(C(=O)O)O2 (stereo not given)
- Activity [6]: 1

SMILES: Cc1cc(O)n(-c2cccc(CO)n2)n1
- IC50 [1]: 18.9 µM
- Activity [2]: 49.6%
- viability at 1 µM [3]: 75.4%
- IC50 ([4]; read-out: IC50): 59.5 µM
- Activity [5]: 28.5%
- Activity [6]: 1.06

SMILES: O=C(O)/C=C/c1ccc(O)c(O)c1 [CAFFEIC ACID]
- IC50 [4]: 0.8 µg/mL

SMILES: OCc1ccc(-n2nc(C(F)(F)F)cc2O)nc1
- IC50 [1]: 28 µM
- Activity [2]: 57.1%
- viability at 1 µM [3]: 78.1%
- Activity [7]: Not active; Showed Weak Activity
- IC50 ([4]; read-out: IC50): 63.9 µM
- Activity [5]: 40.4%
- Activity [6]: 0.91

SMILES: Oc1cc(C(F)(F)F)nn1-c1ncc(Cl)cc1Cl
- IC50 [1]: 20.4 µM
- Activity [2]: 46%
- viability at 1 µM [3]: 76.6%
- IC50 ([4]; read-out: IC50): > 120 µM
- Activity [5]: 29.4%
- Activity [6]: 1.3

SMILES: Cc1nc(C)c(-n2nc(C(F)(F)F)cc2O)nc1C
- IC50 [1]: 19.7 µM
- Activity [2]: 55.6%
- viability at 1 µM [3]: 75.4%
- IC50 ([4]; read-out: IC50): > 120 µM
- Activity [5]: 30.6%
- Activity [6]: 1.34

SMILES: Cc1cc(O)n(-c2ccccn2)n1
- IC50 [1]: 12.3 µM
- Activity [2]: 69.1%
- viability at 1 µM [3]: 81.5%
- IC50 ([4]; read-out: IC50): 15.4 µM
- Activity [5]: 35.1%
- Activity [6]: 1.27

SMILES: Cc1cc(O)n(-c2ccc(C(F)(F)F)cn2)n1
- IC50 [1]: 16.1 µM
- Activity [2]: 55%
- viability at 1 µM [3]: 79.1%
- IC50 ([4]; read-out: IC50): 15.2 µM
- Activity [5]: 30.3%
- Activity [6]: 1.14

SMILES: Cc1cc(O)n(-c2ncccc2C(F)(F)F)n1
- Activity [2]: 5.92%
- viability at 1 µM [3]: 77.4%
- Activity [5]: 2.85%
- Activity [6]: 0.98

SMILES: O=C1S/C(=C\c2cn(-c3ccccc3)nc2-c2ccc(O)cc2)C(=O)N1Cc1ccccc1
- IC50 [8]: 110.8 µg/mL (≈ 244 µM)

SMILES: CC1=NN(c2ncc(Cl)cc2Cl)C(=O)C1
- IC50 [1]: 19.4 µM
- Activity [2]: 31.9%
- viability at 1 µM [3]: 82.5%
- IC50 ([4]; read-out: IC50): > 120 µM
- Activity [5]: 6.73%
- Activity [6]: 1.42

SMILES: Oc1cc(C(F)(F)F)nn1-c1ccc(F)cn1
- IC50 [1]: 16.6 µM
- Activity [2]: 58.3%
- viability at 1 µM [3]: 71.8%
- IC50 ([4]; read-out: IC50): 43.1 µM
- Activity [5]: 35.7%
- Activity [6]: 1.19

SMILES: Oc1cc(C(F)(F)F)nn1-c1ccc(C(F)(F)F)cn1
- IC50 [1]: 14.8 µM
- Activity [2]: 68.1%
- viability at 1 µM [3]: 84.5%
- IC50 ([4]; read-out: IC50): 35.8 µM
- Activity [5]: 28.4%
- Activity [6]: 1.1

SMILES: Cc1cc(C)nc(-n2nc(C)cc2O)n1
- IC50 [1]: 14.6 µM
- Activity [2]: 63.9%
- viability at 1 µM [3]: 74.7%
- IC50 ([4]; read-out: IC50): 18.5 µM
- Activity [5]: 51.6%
- Activity [6]: 1.56

SMILES: Oc1cc(C(F)(F)F)nn1-c1ncccc1Cl
- IC50 [1]: 19.5 µM
- Activity [2]: 40.4%
- viability at 1 µM [3]: 78.8%
- IC50 ([4]; read-out: IC50): > 120 µM
- Activity [5]: 28.1%
- Activity [6]: 1.13

SMILES: Oc1ccc(/C=C/c2cc(O)cc(O)c2)cc1 [RESVERATROL]
- IC50 [9]: 65 µM

SMILES: O=C(O)C1CS[C@@H](c2cccc(F)c2F)N1 (stereo not given in full)
- IC50 ([4]; read-out: IC50): 830 µM

SMILES: COc1cc(/C=C/C(=O)CC(=O)/C=C/c2ccc(O)c(OC)c2)ccc1O [CURCUMIN]
- IC50 [4]: 28 µg/mL

SMILES: C[C@H]1[C@H](C)CC[C@]2(C(=O)O)CC[C@]3(C)C(=CC[C@@H]4[C@@]5(C)CC[C@H](O)C(C)(C)[C@@H]5CC[C@]43C)[C@H]12 [URSOLIC ACID]
- IC50 [4]: 59 µg/mL

SMILES: Cc1cc(O)n(-c2ncccc2C)n1
- Activity [10]: Active
- Activity [11]: Active
- Activity [12]: Active
- IC50 [1]: 13.7 µM
- Activity [2]: 54.7%
- viability at 1 µM [3]: 87%
- Activity [7]: 24.9%
- IC50 ([4]; read-out: IC50): 16.1 µM
- Activity [13]: Active
- Activity [14]: Active
- Activity [15]: Active
- Activity [16]: Active
- Activity [5]: 49.9%
- Activity [6]: 1.88
- Activity [17]: Active

SMILES: Oc1cc(C(F)(F)F)nn1-c1ncc(F)cn1
- IC50 [1]: 16.3 µM
- Activity [2]: 65.4%
- viability at 1 µM [3]: 80.5%
- IC50 ([4]; read-out: IC50): 45.5 µM
- Activity [5]: 30.9%
- Activity [6]: 1.07

SMILES: O=C(c1cc(O)c(O)c(O)c1)c1cc(O)c(Br)cc1O
- IC50 [4]: 14.4 µg/mL

SMILES: Oc1cc(C(F)(F)F)nn1-c1ncccn1
- IC50 [1]: 13.9 µM
- Activity [2]: 63.2%
- viability at 1 µM [3]: 72.7%
- IC50 ([4]; read-out: IC50): 45.3 µM
- Activity [5]: 36.4%
- Activity [6]: 1.19

SMILES: Cc1cc(O)n(-c2ncccc2Cl)n1
- Activity [2]: 4.56%
- viability at 1 µM [3]: 71.5%
- Activity [5]: 2.36%
- Activity [6]: 0.9

SMILES: CC1=NN(c2ccccc2)C(=O)C1 [EDARAVONE]
- IC50 [1]: 15.8 µM
- Activity [2]: 52.3%
- viability at 1 µM [3]: 72.2%
- IC50 ([4]; read-out: IC50): 42.5 µM
- Activity [5]: 21.4%
- Activity [6]: 1.46

SMILES: Cc1cc(O)n(-c2ccc(F)cn2)n1
- IC50 [1]: 13.8 µM
- Activity [2]: 51.6%
- viability at 1 µM [3]: 89.5%
- IC50 ([4]; read-out: IC50): 19.8 µM
- Activity [5]: 21.4%
- Activity [6]: 1.06

SMILES: Cc1cc(O)n(-c2ccc(CO)cn2)n1
- IC50 [1]: 20.5 µM
- Activity [2]: 46.4%
- viability at 1 µM [3]: 81.7%
- IC50 ([4]; read-out: IC50): 32 µM
- Activity [5]: 34.7%
- Activity [6]: 0.8

SMILES: Cc1cc(O)n(-c2ccc(Cl)cn2)n1
- IC50 [1]: 14.8 µM
- Activity [2]: 52%
- viability at 1 µM [3]: 73.4%
- IC50 ([4]; read-out: IC50): 18.8 µM
- Activity [5]: 53%
- Activity [6]: 1.27
